Experimental data reported in US20090275583A1, “ANTIVIRAL COMPOUNDS AND USE THEREOF” (Myriad Genetics, Incorporated, priority 2006, published 2009).
Read-outs that look alike come from different tables or passages of the source.

Assays:
HIV-1NL4-3 = assay: P4-MAGI assay; format: cell-based
How it was run: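 Cytotoxicity (TC50, 50% growth inhibition) came from WST-1 in uninfected cells. For antiviral activity, compound at rising concentrations was added immediately after HIV-1NL4-3 inoculation (MOI 1, DEAE-Dextran) of P4 cells, CD4+ HeLa cells expressing β-galactosidase from a minimal HIV-1 LTR upon infection.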

[1] = system: HIV-1 laboratory strain, NL4-3; assay: MT-4 cytoprotection assay; format: cell-based
Procedure: The HTLV-1 transformed T cell line, MT-4, is highly susceptible to HIV-1 infection. Anti-HIV-1 agents were evaluated in this target cell line by protection from the HIV-induced cytopathic effect. In this assay, viability of both HIV-1 and mock-infected cells was assessed in a […] assay that monitors the ability of metabolically-active cells to reduce the tetrazolium salt WST-1. Cytoprotection by antiviral compounds is indicated by the positive readout of increased WST-1 cleavage.
Briefly, exponentially growing MT-4 cells were mock-infected or batch-infected with the HIV-1 laboratory strain, NL4-3, at a multiplicity of infection of 0.0005. Following a two hour infection, the cells were washed to remove unbound virus and plated in the presence of increasing concentrations of compound. After four days incubation, cytoprotection in the infected cells and compound toxicity in mock-infected cells were analyzed using the WST-1 assay.

[2] = Human immunodeficiency virus 1, 24 h, P4 cells, 24 hour incubation, β-galactosidase expression, read-out: P4-MAGI IC50
[3] = Human immunodeficiency virus 1, text statement, less than about 100 nm, read-out: P4-MAGI assay IC50
[4] = Human immunodeficiency virus 1, NL43, MT4, 96 h, MT-4 cells, four days incubation, WST-1 readout, read-out: MT4 EC50
[5] = Human immunodeficiency virus 1, NL43, less than about 100 nm, read-out: MT-4 assay EC50 (concentration of compound that reduces the virus induced cytopathic effect by 50%)

Row | SMILES | IC50 (HIV-1NL4-3; [2]) | IC50 (HIV-1NL4-3; [3]) | EC50 [1, 4] | EC50 [1, 5]
1 | C=C(C)[C@@H]1CC[C@]2(C(=O)NCc3cccc(C(=O)NCCc4ccc(C(=O)O)s4)c3)CC[C@]3(C)C(CCC4[C@@]5(C)CC[C@H](O)C(C)(C)C5CC[C@]43C)C12 (stereo partly drawn) [Example 48] | 29 nM | < 100 nM | 63 nM | < 100 nM
2 | C=C(C)[C@@H]1CC[C@]2(C(=O)NCCc3cccc(C(=O)NCCCCC(=O)O)c3)CC[C@]3(C)C(CCC4[C@@]5(C)CC[C@H](O)C(C)(C)C5CC[C@]43C)C12 (stereo partly drawn) [Example 56] | 46.7 nM | < 100 nM | 310 nM | –
3 | C=C(C)[C@@H]1CC[C@]2(C(=O)NCCc3cccc(C(=O)NCCC(=O)O)c3)CC[C@]3(C)C(CCC4[C@@]5(C)CC[C@H](O)C(C)(C)C5CC[C@]43C)C12 (stereo partly drawn) [Example 57] | 98.2 nM | < 100 nM | 1200 nM | –
4 | C=C(C)[C@@H]1CC[C@]2(C(=O)NCCc3cccc(C(=O)NCc4cccc(C(=O)O)c4)c3)CC[C@]3(C)C(CCC4[C@@]5(C)CC[C@H](O)C(C)(C)C5CC[C@]43C)C12 (stereo partly drawn) [Example 58] | 18.6 nM | < 100 nM | 18 nM | < 100 nM
5 | C=C(C)[C@@H]1CC[C@]2(C(=O)NCCc3cccc(C(=O)NCCc4cccc(C(=O)O)c4)c3)CC[C@]3(C)C(CCC4[C@@]5(C)CC[C@H](O)C(C)(C)C5CC[C@]43C)C12 (stereo partly drawn) [Example 59] | 66.1 nM | < 100 nM | 68 nM | < 100 nM
6 | C=C(C)[C@@H]1CC[C@]2(C(=O)NCCc3cccc(C(=O)Nc4cccc(C(=O)O)c4)c3)CC[C@]3(C)C(CCC4[C@@]5(C)CC[C@H](O)C(C)(C)C5CC[C@]43C)C12 (stereo partly drawn) [Example 60] | 31 nM | < 100 nM | 248 nM | –
7 | C=C(C)[C@@H]1CC[C@]2(C(=O)NCCc3cccc(C(=O)Nc4cc(C(=O)O)ccc4N)c3)CC[C@]3(C)C(CCC4[C@@]5(C)CC[C@H](O)C(C)(C)C5CC[C@]43C)C12 (stereo partly drawn) [Example 61] | 65 nM | < 100 nM | 2300 nM | –
8 | C=C(C)[C@@H]1CC[C@]2(C(=O)NCCc3cccc(C(=O)NCC(=O)OCC)c3)CC[C@]3(C)C(CCC4[C@@]5(C)CC[C@H](O)C(C)(C)C5CC[C@]43C)C12 (stereo partly drawn) [Example 62] | 40.4 nM | < 100 nM | 230 nM | –
9 | C=C(C)[C@@H]1CC[C@]2(C(=O)NCCc3cccc(C(=O)NC(CCC(=O)OC)C(=O)OC)c3)CC[C@]3(C)C(CCC4[C@@]5(C)CC[C@H](O)C(C)(C)C5CC[C@]43C)C12 (stereo partly drawn) [Example 63] | 35.9 nM | < 100 nM | 90 nM | < 100 nM
10 | C=C(C)[C@@H]1CC[C@]2(C(=O)NCCc3cccc(C(=O)N[C@@H](CC(C)C)[C@@H](O)CC(=O)O)c3)CC[C@]3(C)C(CCC4[C@@]5(C)CC[C@H](O)C(C)(C)C5CC[C@]43C)C12 (stereo partly drawn) [Example 65] | 156 nM | – | 83 nM | < 100 nM
11 | C=C(C)[C@@H]1CC[C@]2(C(=O)NCCc3cccc(C(=O)NCc4ccc(C(=O)O)cc4)c3)CC[C@]3(C)C(CCC4[C@@]5(C)CC[C@H](O)C(C)(C)C5CC[C@]43C)C12 (stereo partly drawn) [Example 67] | 7.5 nM | < 100 nM | 23 nM | < 100 nM
12 | C=C(C)[C@@H]1CC[C@]2(C(=O)NCCc3cccc(C(=O)NCCc4ccc(C(=O)O)cc4)c3)CC[C@]3(C)C(CCC4[C@@]5(C)CC[C@H](O)C(C)(C)C5CC[C@]43C)C12 (stereo partly drawn) [Example 68] | 15.2 nM | < 100 nM | 64 nM | < 100 nM
13 | C=C(C)[C@@H]1CC[C@]2(C(=O)NCCc3cccc(C(=O)NCc4ccc(C(=O)O)cc4F)c3)CC[C@]3(C)C(CCC4[C@@]5(C)CC[C@H](O)C(C)(C)C5CC[C@]43C)C12 (stereo partly drawn) [Example 69] | 11 nM | < 100 nM | 670 nM | –
14 | C=C(C)[C@@H]1CC[C@]2(C(=O)NCCc3cccc(C(=O)NCc4ccc(C(=O)O)s4)c3)CC[C@]3(C)C(CCC4[C@@]5(C)CC[C@H](O)C(C)(C)C5CC[C@]43C)C12 (stereo partly drawn) [Example 70] | 19.7 nM | < 100 nM | 1.6 nM | < 100 nM
15 | C=C(C)[C@@H]1CC[C@]2(C(=O)NCCc3cccc(C(=O)NCC(N)=O)c3)CC[C@]3(C)C(CCC4[C@@]5(C)CC[C@H](O)C(C)(C)C5CC[C@]43C)C12 (stereo partly drawn) [Example 72] | 194 nM | – | 10000 nM | –
16 | C=C(C)[C@@H]1CC[C@]2(C(=O)NCCc3cccc(C(=O)NCc4cccc(C(=O)O)c4F)c3)CC[C@]3(C)C(CCC4[C@@]5(C)CC[C@H](O)C(C)(C)C5CC[C@]43C)C12 (stereo partly drawn) [Example 73] | 16.2 nM | < 100 nM | 1.5 nM | < 100 nM
17 | C=C(C)[C@@H]1CC[C@]2(C(=O)NCCc3cccc(C(=O)NCc4cccc(C(=O)OC)c4F)c3)CC[C@]3(C)C(CCC4[C@@]5(C)CC[C@H](O)C(C)(C)C5CC[C@]43C)C12 (stereo partly drawn) [Example 74] | 27.6 nM | < 100 nM | 0.8 nM | < 100 nM
18 | C=C(C)[C@@H]1CC[C@]2(C(=O)NCCc3cccc(C(=O)NCCc4ccc(C(=O)O)cc4F)c3)CC[C@]3(C)C(CCC4[C@@]5(C)CC[C@H](O)C(C)(C)C5CC[C@]43C)C12 (stereo partly drawn) [Example 75] | 36.3 nM | < 100 nM | 1.4 nM | < 100 nM
19 | C=C(C)[C@@H]1CC[C@]2(C(=O)NCCc3cccc(C(=O)NCc4ccc(C(=O)O)cn4)c3)CC[C@]3(C)C(CCC4[C@@]5(C)CC[C@H](O)C(C)(C)C5CC[C@]43C)C12 (stereo partly drawn) [Example 76] | 10.4 nM | < 100 nM | 89 nM | < 100 nM
20 | C=C(C)[C@@H]1CC[C@]2(C(=O)NCc3cccc(CNCc4nc5ccc(C(=O)O)cc5[nH]4)c3)CC[C@]3(C)C(CCC4[C@@]5(C)CC[C@H](O)C(C)(C)C5CC[C@]43C)C12 (stereo partly drawn) [Example 80] | 242 nM | – | 1000 nM | –
21 | C=C(C)[C@@H]1CC[C@]2(C(=O)NCc3ccnc(C(=O)NCCc4ccc(C(=O)O)cc4)c3)CC[C@]3(C)C(CCC4[C@@]5(C)CC[C@H](O)C(C)(C)C5CC[C@]43C)C12 (stereo partly drawn) [Example 92] | 121 nM | – | 4870 nM | –
22 | C=C(C)[C@@H]1CC[C@]2(C(=O)NCCc3cccc(C(=O)NCc4ccc(C(=O)OC)cc4)c3F)CC[C@]3(C)C(CCC4[C@@]5(C)CC[C@H](O)C(C)(C)C5CC[C@]43C)C12 (stereo partly drawn) [Example 93] | 33.9 nM | < 100 nM | 40 nM | < 100 nM
23 | C=C(C)[C@@H]1CC[C@]2(C(=O)NCCc3cccc(C(=O)NCc4ccc(C(=O)O)cc4)c3F)CC[C@]3(C)C(CCC4[C@@]5(C)CC[C@H](O)C(C)(C)C5CC[C@]43C)C12 (stereo partly drawn) [Example 94] | 70.5 nM | < 100 nM | 290 nM | –
24 | C=C(C)[C@@H]1CC[C@]2(C(=O)NCc3cc(C(=O)NCCc4ccc(C(=O)O)cc4)ccc3F)CC[C@]3(C)C(CCC4[C@@]5(C)CC[C@H](O)C(C)(C)C5CC[C@]43C)C12 (stereo partly drawn) [Example 95] | 11.2 nM | < 100 nM | 1.5 nM | < 100 nM
25 | C=C(C)[C@@H]1CC[C@]2(C(=O)NCc3cc(C(=O)NCCc4ccc(C(=O)OC)cc4)ccc3F)CC[C@]3(C)C(CCC4[C@@]5(C)CC[C@H](O)C(C)(C)C5CC[C@]43C)C12 (stereo partly drawn) [Example 96] | 33 nM | < 100 nM | 3.5 nM | < 100 nM
26 | C=C(C)[C@@H]1CC[C@]2(C(=O)NCc3cc(C(=O)NCCc4cccc(C(=O)O)c4)ccc3F)CC[C@]3(C)C(CCC4[C@@]5(C)CC[C@H](O)C(C)(C)C5CC[C@]43C)C12 (stereo partly drawn) [Example 97] | 23.7 nM | < 100 nM | 1 nM | < 100 nM
